Data published in patent US11058745B1, “Stable liquid pharmaceutical compositions of daptomycin” (JNF LLC., priority 2018, dated 2021).

Test: Chemical stability of daptomycin formulations on storage (daptomycin peak purity, anhydrodaptomycin impurity)
Type: physicochemical
Settings: with only propylene glycol, 2-8° C.
Method: For purposes of the present invention, “stable” or “substantially stable” with respect to liquid daptomycin compositions shall be understood to mean compositions having less than about 5% anhydrodaptomycin impurity compared to a reference standard and/or having a peak purity of at least about 95% after 1 month at room temperature or 12 months at refrigerated temperatures of from about 2 to about 8° C. Impurity and peak purity calculated based on integration of major impurity anhydrodaptomycin and daptomycin peaks only and minor impurities not accounted for calculations.
Note: Impurities presented here represent increase compared to standard injections. The peak at RRT of about 1.12 (Anhydrodaptomycin) is major impurity that increases over the time. The same impurity is also present in standard injections to the extent of 0.6 to 0.8%. Here onwards, impurity means it is Anhydrodaptomycin and peak purity refers to area percentage of Daptomycin, when only two peaks are integrated, Daptomycin and Anhydrodaptomycin.
Note: Impurities presented here represent increase compared to standard injections. The peak at RRT 1.12 (Anhydrodaptomycin) is major impurity that increases over the time. The same impurity is also present in standard injections to the extent of 0.6 to 0.8%.

Which “stable up to (time)” value does the source give for `CCCCCCCCCC(=O)N[C@@H](Cc1c[nH]c2ccccc12)C(=O)N[C@H](CC(N)=O)C(=O)N[C@@H](CC(=O)O)C(=O)N[C@@H]1C(=O)NCC(=O)N[C@@H](CCCN)C(=O)N[C@@H](CC(=O)O)C(=O)N[C@H](C)C(=O)N[C@@H](CC(=O)O)C(=O)NCC(=O)N[C@H](CO)C(=O)N[C@@H]([C@H](C)CC(=O)O)C(=O)N[C@@H](CC(=O)c2ccccc2N)C(=O)O[C@@H]1C` [Daptomycin] here?
The value was “up to 1 month”.
